Literature values, collected in patent US11951104B2 (LIVZON PHARMACEUTICAL GROUP INC, priority 2018, dated 2024).

Columns and labels:
5-HT1A receptors = biological target: T1, 5-HT1A receptors (Homo sapiens, UniProt P08908); conditions: background
T1 sequence (P08908 1-422): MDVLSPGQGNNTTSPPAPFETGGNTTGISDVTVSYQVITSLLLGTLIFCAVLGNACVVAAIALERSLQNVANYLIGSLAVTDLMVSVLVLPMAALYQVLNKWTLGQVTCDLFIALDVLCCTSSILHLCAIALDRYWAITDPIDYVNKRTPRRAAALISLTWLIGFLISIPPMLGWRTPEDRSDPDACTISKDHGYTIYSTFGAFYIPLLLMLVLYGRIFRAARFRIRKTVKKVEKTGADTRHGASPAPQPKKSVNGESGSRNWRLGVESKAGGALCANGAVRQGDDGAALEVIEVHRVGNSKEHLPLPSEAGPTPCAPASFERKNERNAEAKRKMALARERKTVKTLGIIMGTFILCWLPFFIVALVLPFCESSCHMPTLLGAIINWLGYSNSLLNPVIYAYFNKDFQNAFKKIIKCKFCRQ

5-HT2A receptors = 5-HT2A receptors (Homo sapiens, UniProt P28223); conditions: background
Chain of 5-HT2A receptors (P28223 whole entry): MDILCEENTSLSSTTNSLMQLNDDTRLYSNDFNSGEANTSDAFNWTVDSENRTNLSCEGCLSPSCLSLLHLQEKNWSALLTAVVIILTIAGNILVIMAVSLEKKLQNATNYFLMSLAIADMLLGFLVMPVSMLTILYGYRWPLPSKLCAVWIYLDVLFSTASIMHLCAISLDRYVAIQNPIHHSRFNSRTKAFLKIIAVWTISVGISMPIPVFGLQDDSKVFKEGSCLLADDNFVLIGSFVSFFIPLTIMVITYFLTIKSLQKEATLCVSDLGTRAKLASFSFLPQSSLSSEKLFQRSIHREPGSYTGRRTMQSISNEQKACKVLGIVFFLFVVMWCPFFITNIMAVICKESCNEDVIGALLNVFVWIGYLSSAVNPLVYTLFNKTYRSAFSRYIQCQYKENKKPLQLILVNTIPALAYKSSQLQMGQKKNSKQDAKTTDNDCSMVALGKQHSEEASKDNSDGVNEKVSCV

O=C1CCc2ccc(OCCCCN3CCN(c4cccc(Cl)c4Cl)CC3)cc2N1 [aripiprazole]
affinity for 5-HT1A receptors (5-HT1A receptors): high affinity
affinity for 5-HT2A receptors (5-HT2A receptors): high affinity
